From PubChem BioAssay AID1918994 (Molecular Pharmacology Branch, DTP, NCI, 2023)

System: 292921-168-R-J2-PDC complex spheroid growth
Assay: Anticancer human tumor 292921-168-R-J2-PDC patient-derived pancreatic carcinoma cell line growth inhibition [AhR]
Details: for IC50: curve of first compound; for viability, T/C: stronger effect = lower value
Source text: Multicellular complex tumor spheroid response to aryl hydrocarbon receptor antagonists in combination with a variety of drugs and investigational agents in selected tumor cell lines
The current study was undertaken to assess response to aryl hydrocarbon receptor antagonists in combination with standard-of-care drugs and investigational agents in solid tumor complex spheroid models. Complex spheroids include a stromal component modeled by human endothelial cells (HUVEC) and fibroblasts modeled by human mesenchymal stem cells (MSCs). The concentration ranges selected for each drug and investigational agent were based upon clinically achievable concentrations if the clinical Cmax of the agent was known.
Compounds. The drugs and investigational agents: BAY 2416964 (NSC825713), GNF351 (NSC835774), CH-223191 (NSC835775), CPI-455 (NSC825282), aza-TdCyd (NSC777586), decitabine (NSC127716), belinostat (NSC758774), entinostat (NSC756642), pevonedistat (NSC761192), tazemetostat (NSC777109), talazoparib (NSC765396), olaparib (NSC753686), selinexor (NSC780203), nedisertib (M3814, NSC802822), bortezomib (NSC756655), venetoclax (NSC766270), doxorubicin (NSC123127), elimusertib (BAY189344, NSC800525), ceralasertib (AZD6738, NSC777638), TAK-243 (NSC785004), alisertib (NSC759677), etoposide (NSC141540), topotecan (NSC609699), eribulin (NSC707389), gemcitabine (NSC613327), carboplatin (NSC241240), cisplatin (NSC119875), and SN-38 (NSC673596) were obtained from the National Cancer Institute (NCI) Developmental Therapeutics Program Chemical Repository (32). The FDA-approved anticancer drug set is available from the Developmental Therapeutics Program at https://dtp.cancer.gov/organization/dscb/obtaining/available plates.htm. […] The stock solutions were prepared in dimethyl sulfoxide (DMSO, Sigma-Aldrich, St. Louis, MO, cat. D2650), except for the platinum compounds which were prepared in saline (Quality Biological, Gaithersburg, MD, cat. 114-055-101), at 800-fold the tested concentration and stored at -70 degrees C prior to their use. All drugs and investigational agents were tested over a range starting from a high concentration at or near the clinical Cmax and decreasing in half-log increments. If the clinical Cmax for an agent had not been determined, the highest concentration tested was 10 microM (Table 1).
Cell Culture. All cells were maintained in an incubator at 37 degrees C and 5% CO2 with 95% humidity. The PDC lines were cultured according to standard operating procedures established by the NCI PDMR (https://pdmr.cancer.gov). Briefly, all PDCs were thawed and cultured in Matrigel-coated flasks prepared with a working solution of 1X Ham's F-12 nutrient mix, without supplementation (Invitrogen, Waltham, MA, cat. 11765054), 100 U/mL penicillin-streptomycin (Invitrogen, cat. 15140122), and 2.5% Matrigel (Corning Inc., Corning, NY, cat. 354248) for the first three passages. All PDCs were cultured in complete DMEM/F-12 media containing advanced DMEM/F-12 (Invitrogen, cat. 12634028), 4.9% defined fetal bovine serum, heat inactivated (HyClone Laboratories Inc., Logan, UT, cat. SH30070.03HI), 389 ng/mL hydrocortisone (Sigma-Aldrich, cat. H4001), 9.7 ng/mL human EGF recombinant protein (Invitrogen, cat. PHG0313), 23.4 microg/mL adenine (Sigma-Aldrich, cat. A2786), 97.3 U/mL penicillin-streptomycin (Invitrogen, cat. 15140122), 1.9 mM L-glutamine (Invitrogen, cat. 25030081), and 9.7 microM Y-27632 dihydrochloride (Tocris Bioscience, Bristol, United Kingdom, cat. 1254). The PDCs were cultured in complete DMEM/F12 media without 10 microM Y-27632 dihydrochloride for at least two passages prior to the screen. The established cell lines NCI-H1341 and […] were cultured in DMEM/F-12, HEPES (Invitrogen, cat. 11330032), 5% defined fetal bovine serum (HyClone Laboratories Inc., cat. SH30070.03), ITS premix universal culture supplement [insulin (5 microg/mL), transferrin (5 microg/mL), and selenious acid (5 ng/mL)] […]
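Further: spheroids exposed to compounds for seven days after three days of growth.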

CCN(c1cc(-c2ccc(CN3CCOCC3)cc2)cc(C(=O)NCc2c(C)cc(C)[nH]c2=O)c1C)C1CCOCC1 + Cc1cncc(-c2nc(NCCc3c[nH]c4ccccc34)c3ncn(C(C)C)c3n2)c1
IC50 (second compound 0.1 µM): > 3000 nM
IC50 (second compound 0.316 µM): > 3000 nM
IC50 (second compound 1 µM): > 3000 nM
IC50 (second compound 3.16 µM): > 3000 nM
IC50 (second compound 10 µM): 34 nM
viability, T/C (second compound 0.1 µM, first compound 0.00949 µM): 93.8%
viability, T/C (second compound 0.1 µM, first compound 0.03 µM): 94.5%
viability, T/C (second compound 0.1 µM, first compound 0.0949 µM): 92.7%
viability, T/C (second compound 0.1 µM, first compound 0.3 µM): 84.9%
viability, T/C (second compound 0.1 µM, first compound 0.949 µM): 82.7%
viability, T/C (second compound 0.1 µM, first compound 3 µM): 67.3%
viability, T/C (second compound 0.316 µM, first compound 0.00949 µM): 94.7%
viability, T/C (second compound 0.316 µM, first compound 0.03 µM): 91.1%
viability, T/C (second compound 0.316 µM, first compound 0.0949 µM): 90%
viability, T/C (second compound 0.316 µM, first compound 0.3 µM): 77.6%
viability, T/C (second compound 0.316 µM, first compound 0.949 µM): 78.5%
viability, T/C (second compound 0.316 µM, first compound 3 µM): 83.3%
viability, T/C (second compound 1 µM, first compound 0.00949 µM): 87.2%
viability, T/C (second compound 1 µM, first compound 0.03 µM): 88.8%
viability, T/C (second compound 1 µM, first compound 0.0949 µM): 84.9%
viability, T/C (second compound 1 µM, first compound 0.3 µM): 76.4%
viability, T/C (second compound 1 µM, first compound 0.949 µM): 75.4%
viability, T/C (second compound 1 µM, first compound 3 µM): 75.8%
viability, T/C (second compound 3.16 µM, first compound 0.00949 µM): 64.4%
viability, T/C (second compound 3.16 µM, first compound 0.03 µM): 66.7%
viability, T/C (second compound 3.16 µM, first compound 0.0949 µM): 73.2%
viability, T/C (second compound 3.16 µM, first compound 0.3 µM): 64.2%
viability, T/C (second compound 3.16 µM, first compound 0.949 µM): 62.8%
viability, T/C (second compound 3.16 µM, first compound 3 µM): 52.7%
viability, T/C (second compound 10 µM, first compound 0.00949 µM): 49.2%
viability, T/C (second compound 10 µM, first compound 0.03 µM): 49.6%
viability, T/C (second compound 10 µM, first compound 0.0949 µM): 52.7%
viability, T/C (second compound 10 µM, first compound 0.3 µM): 49.3%
viability, T/C (second compound 10 µM, first compound 0.949 µM): 41.1%
viability, T/C (second compound 10 µM, first compound 3 µM): 45.3%

O=C(C=Cc1cccc(S(=O)(=O)Nc2ccccc2)c1)NO + Cc1cncc(-c2nc(NCCc3c[nH]c4ccccc34)c3ncn(C(C)C)c3n2)c1
IC50 (second compound 0.1 µM): 374 nM
IC50 (second compound 0.316 µM): 460 nM
IC50 (second compound 1 µM): 280 nM
IC50 (second compound 3.16 µM): < 31.6 nM
IC50 (second compound 10 µM): < 31.6 nM
viability, T/C (second compound 0.1 µM, first compound 0.0316 µM): 76%
viability, T/C (second compound 0.1 µM, first compound 0.1 µM): 59.6%
viability, T/C (second compound 0.1 µM, first compound 0.316 µM): 46.1%
viability, T/C (second compound 0.1 µM, first compound 1 µM): 41%
viability, T/C (second compound 0.1 µM, first compound 3.16 µM): 36%
viability, T/C (second compound 0.1 µM, first compound 10 µM): 3.84%
viability, T/C (second compound 0.316 µM, first compound 0.0316 µM): 69.9%
viability, T/C (second compound 0.316 µM, first compound 0.1 µM): 61.4%
viability, T/C (second compound 0.316 µM, first compound 0.316 µM): 50.9%
viability, T/C (second compound 0.316 µM, first compound 1 µM): 39.9%
viability, T/C (second compound 0.316 µM, first compound 3.16 µM): 33.4%
viability, T/C (second compound 0.316 µM, first compound 10 µM): 3.8%
viability, T/C (second compound 1 µM, first compound 0.0316 µM): 55.3%
viability, T/C (second compound 1 µM, first compound 0.1 µM): 59.7%
viability, T/C (second compound 1 µM, first compound 0.316 µM): 49.6%
viability, T/C (second compound 1 µM, first compound 1 µM): 35.4%
viability, T/C (second compound 1 µM, first compound 3.16 µM): 30.5%
viability, T/C (second compound 1 µM, first compound 10 µM): 4.08%
viability, T/C (second compound 3.16 µM, first compound 0.0316 µM): 46.3%
viability, T/C (second compound 3.16 µM, first compound 0.1 µM): 46.6%
viability, T/C (second compound 3.16 µM, first compound 0.316 µM): 46%
viability, T/C (second compound 3.16 µM, first compound 1 µM): 31.9%
viability, T/C (second compound 3.16 µM, first compound 3.16 µM): 31.7%
viability, T/C (second compound 3.16 µM, first compound 10 µM): 4.11%
viability, T/C (second compound 10 µM, first compound 0.0316 µM): 32.9%
viability, T/C (second compound 10 µM, first compound 0.1 µM): 34.2%
viability, T/C (second compound 10 µM, first compound 0.316 µM): 30.1%
viability, T/C (second compound 10 µM, first compound 1 µM): 29%
viability, T/C (second compound 10 µM, first compound 3.16 µM): 26.6%
viability, T/C (second compound 10 µM, first compound 10 µM): 6.63%
